Reference: ChEMBL document CHEMBL1122492, “Synthesis of iodine-125 labeled (+/-)-15-(4-azidobenzyl)carazolol: a potent beta-adrenergic photoaffinity probe” (J Med Chem, 1983)

Key:
[1] = Dissociation constant against beta adrenergic receptor of frog erythrocyte membranes
[2] = Dissociation constant against beta adrenergic receptor of turkey erythrocyte membranes
[3] = Dissociation constant against beta adrenergic receptor

| Kd [1] | Kd [2] | Kd [3] | Structure (SMILES) |
| --- | --- | --- | --- |
| 0.02 nM | 0.02 nM |  | CC(C)(Cc1ccc(N=[N+]=[N-])cc1)NCC(O)COc1ccc(I)c2[nH]c3ccccc3c12 (stereo not given) |
|  |  | 0.1 nM | CC(C)NCC(O)COc1cccc2[nH]c3ccccc3c12 (stereo not given) [CARAZOLOL] |
| 0.02 nM | 0.02 nM |  | CC(C)(Cc1ccc(N=[N+]=[N-])c(I)c1)NCC(O)COc1cccc2[nH]c3ccccc3c12 (stereo not given) |
